Results published in BindingDB's records for PubMed 21964340.

Legend:
[1] = target: Sodium-dependent noradrenaline transporter (Homo sapiens) (UniProt P23975); assay: Inhibition of human NET by scintillation proximity assay
[2] = Inhibition of OGT (unknown origin) incubated for 1 hr by colloidal coomassie staining based LC-MS/MS analysis
[3] = Inhibition of TKT (unknown origin) incubated for 1 hr by colloidal coomassie staining based LC-MS/MS analysis
[4] = Inhibition of RFC1 (unknown origin) incubated for 1 hr by colloidal coomassie staining based LC-MS/MS analysis
[5] = Inhibition of PUS1 (unknown origin) incubated for 1 hr by colloidal coomassie staining based LC-MS/MS analysis
[6] = Inhibition of RPN2 (unknown origin) incubated for 1 hr by colloidal coomassie staining based LC-MS/MS analysis
[7] = Inhibition of ARL1 (unknown origin) incubated for 1 hr by colloidal coomassie staining based LC-MS/MS analysis
[8] = Inhibition of UBA1 (unknown origin) incubated for 1 hr by colloidal coomassie staining based LC-MS/MS analysis
[9] = Inhibition of KPNA1 (unknown origin) incubated for 1 hr by colloidal coomassie staining based LC-MS/MS analysis
[10] = Inhibition of CCNL2 (unknown origin) incubated for 1 hr by colloidal coomassie staining based LC-MS/MS analysis
[11] = Inhibition of PTBP1 (unknown origin) incubated for 1 hr by colloidal coomassie staining based LC-MS/MS analysis
[12] = Inhibition of INTS8 (unknown origin) incubated for 1 hr by colloidal coomassie staining based LC-MS/MS analysis
[13] = Inhibition of LAS1L (unknown origin) incubated for 1 hr by colloidal coomassie staining based LC-MS/MS analysis
[14] = Inhibition of ABCF1 (unknown origin) incubated for 1 hr by colloidal coomassie staining based LC-MS/MS analysis
[15] = Inhibition of NACC1 (unknown origin) incubated for 1 hr by colloidal coomassie staining based LC-MS/MS analysis
[16] = Inhibition of WDR33 (unknown origin) incubated for 1 hr by colloidal coomassie staining based LC-MS/MS analysis
[17] = Inhibition of PIAS4 (unknown origin) incubated for 1 hr by colloidal coomassie staining based LC-MS/MS analysis
[18] = Inhibition of LENG8 (unknown origin) incubated for 1 hr by colloidal coomassie staining based LC-MS/MS analysis
[19] = Inhibition of PRDX6 (unknown origin) incubated for 1 hr by colloidal coomassie staining based LC-MS/MS analysis
[20] = Inhibition of POLR2B (unknown origin) incubated for 1 hr by colloidal coomassie staining based LC-MS/MS analysis
[21] = Inhibition of CORO1A (unknown origin) incubated for 1 hr by colloidal coomassie staining based LC-MS/MS analysis
[22] = Inhibition of PSMD11 (unknown origin) incubated for 1 hr by colloidal coomassie staining based LC-MS/MS analysis
[23] = Inhibition of RPS15A (unknown origin) incubated for 1 hr by colloidal coomassie staining based LC-MS/MS analysis
[24] = Inhibition of SFRS10 (unknown origin) incubated for 1 hr by colloidal coomassie staining based LC-MS/MS analysis
[25] = Inhibition of SMCHD1 (unknown origin) incubated for 1 hr by colloidal coomassie staining based LC-MS/MS analysis
[26] = Inhibition of SF3B14 (unknown origin) incubated for 1 hr by colloidal coomassie staining based LC-MS/MS analysis
[27] = Inhibition of CSNK2A1 (unknown origin) incubated for 1 hr by colloidal coomassie staining based LC-MS/MS analysis
[28] = Inhibition of HIST1H2BA (unknown origin) incubated for 1 hr by colloidal coomassie staining based LC-MS/MS analysis
[29] = Binding affinity against ELL (unknown origin) assessed as apparent dissociation constant incubated for 1 hr by colloidal coomassie staining based LC-MS/MS analysis
[30] = Binding affinity against OGT (unknown origin) assessed as apparent dissociation constant incubated for 1 hr by colloidal coomassie staining based LC-MS/MS analysis
[31] = Binding affinity against DSG1 (unknown origin) assessed as apparent dissociation constant incubated for 1 hr by colloidal coomassie staining based LC-MS/MS analysis
[32] = Binding affinity against RFC1 (unknown origin) assessed as apparent dissociation constant incubated for 1 hr by colloidal coomassie staining based LC-MS/MS analysis
[33] = Binding affinity against BRD9 (unknown origin) assessed as apparent dissociation constant incubated for 1 hr by colloidal coomassie staining based LC-MS/MS analysis
[34] = Binding affinity against CCT2 (unknown origin) assessed as apparent dissociation constant incubated for 1 hr by colloidal coomassie staining based LC-MS/MS analysis
[35] = Binding affinity against NOLC1 (unknown origin) assessed as apparent dissociation constant incubated for 1 hr by colloidal coomassie staining based LC-MS/MS analysis
[36] = Binding affinity against PSME3 (unknown origin) assessed as apparent dissociation constant incubated for 1 hr by colloidal coomassie staining based LC-MS/MS analysis
[37] = Binding affinity against GTF2I (unknown origin) assessed as apparent dissociation constant incubated for 1 hr by colloidal coomassie staining based LC-MS/MS analysis
[38] = Binding affinity against PWWP2B (unknown origin) assessed as apparent dissociation constant incubated for 1 hr by colloidal coomassie staining based LC-MS/MS analysis
[39] = Binding affinity against TUBA4A (unknown origin) assessed as apparent dissociation constant incubated for 1 hr by colloidal coomassie staining based LC-MS/MS analysis
[40] = Binding affinity against SETD1B (unknown origin) assessed as apparent dissociation constant incubated for 1 hr by colloidal coomassie staining based LC-MS/MS analysis

Chain of Sodium-dependent noradrenaline transporter (Homo sapiens) (P23975 whole entry, looked up): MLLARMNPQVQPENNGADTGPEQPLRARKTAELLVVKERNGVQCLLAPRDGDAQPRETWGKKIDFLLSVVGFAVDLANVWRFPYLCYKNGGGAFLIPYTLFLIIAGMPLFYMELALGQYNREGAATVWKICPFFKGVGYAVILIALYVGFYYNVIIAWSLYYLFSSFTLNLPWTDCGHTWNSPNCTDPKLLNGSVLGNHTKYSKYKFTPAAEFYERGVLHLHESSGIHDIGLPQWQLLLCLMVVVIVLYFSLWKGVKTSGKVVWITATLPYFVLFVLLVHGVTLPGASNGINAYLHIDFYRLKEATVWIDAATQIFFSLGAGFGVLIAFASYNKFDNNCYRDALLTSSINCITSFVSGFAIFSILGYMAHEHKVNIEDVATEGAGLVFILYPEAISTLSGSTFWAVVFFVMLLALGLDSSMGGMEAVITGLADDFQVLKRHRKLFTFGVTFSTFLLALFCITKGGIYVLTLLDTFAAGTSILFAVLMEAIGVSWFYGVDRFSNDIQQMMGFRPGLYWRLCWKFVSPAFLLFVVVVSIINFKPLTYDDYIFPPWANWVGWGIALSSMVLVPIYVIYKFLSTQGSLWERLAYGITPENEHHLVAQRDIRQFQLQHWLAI

CCNC(=O)C[C@@H]1N=C(c2ccc(Cl)cc2)c2cc(OC)ccc2-n2c(C)nnc21
IC50 [1]: > 100 µM
IC50 [2]: 0.48 µM
IC50 [3]: 5.27 µM
IC50 [4]: 0.05 µM
IC50 [5]: > 10 µM
IC50 [6]: > 10 µM
IC50 [7]: > 10 µM
IC50 [8]: > 10 µM
IC50 [9]: 0.03 µM
IC50 [10]: 0.05 µM
IC50 [11]: > 10 µM
IC50 [12]: > 10 µM
IC50 [13]: 0.27 µM
IC50 [14]: > 10 µM
IC50 [15]: > 10 µM
IC50 [16]: 1.09 µM
IC50 [17]: > 10 µM
IC50 [18]: 0.1 µM
IC50 [19]: > 10 µM
IC50 [20]: 0.15 µM
IC50 [21]: > 10 µM
IC50 [22]: 0.06 µM
IC50 [23]: 1.39 µM
IC50 [24]: 0.23 µM
IC50 [25]: 1.07 µM
IC50 [26]: > 10 µM
IC50 [27]: 0.12 µM
IC50 [28]: > 10 µM
Kd [29]: 0.066 µM
Kd [30]: 0.223 µM
Kd [31]: 4.62 µM
Kd [32]: 0.054 µM
Kd [33]: 0.02 µM
Kd [34]: 1.62 µM
Kd [35]: 0.063 µM
Kd [36]: 0.084 µM
Kd [37]: 7.55 µM
Kd [38]: 0.025 µM
Kd [39]: 0.102 µM
Kd [40]: 0.045 µM
